The test deals with T1, soluble guanylate cyclase (sGC), α1 and β1 subunits of guanylate cyclase expressed in Sf9 cells (Homo sapiens, UniProt Q02108+Q02153).
T1 construct: made in house; host or cells: Sf9 insect cells (baculovirus co-infection)
T1 sequence (Q02108 1-690): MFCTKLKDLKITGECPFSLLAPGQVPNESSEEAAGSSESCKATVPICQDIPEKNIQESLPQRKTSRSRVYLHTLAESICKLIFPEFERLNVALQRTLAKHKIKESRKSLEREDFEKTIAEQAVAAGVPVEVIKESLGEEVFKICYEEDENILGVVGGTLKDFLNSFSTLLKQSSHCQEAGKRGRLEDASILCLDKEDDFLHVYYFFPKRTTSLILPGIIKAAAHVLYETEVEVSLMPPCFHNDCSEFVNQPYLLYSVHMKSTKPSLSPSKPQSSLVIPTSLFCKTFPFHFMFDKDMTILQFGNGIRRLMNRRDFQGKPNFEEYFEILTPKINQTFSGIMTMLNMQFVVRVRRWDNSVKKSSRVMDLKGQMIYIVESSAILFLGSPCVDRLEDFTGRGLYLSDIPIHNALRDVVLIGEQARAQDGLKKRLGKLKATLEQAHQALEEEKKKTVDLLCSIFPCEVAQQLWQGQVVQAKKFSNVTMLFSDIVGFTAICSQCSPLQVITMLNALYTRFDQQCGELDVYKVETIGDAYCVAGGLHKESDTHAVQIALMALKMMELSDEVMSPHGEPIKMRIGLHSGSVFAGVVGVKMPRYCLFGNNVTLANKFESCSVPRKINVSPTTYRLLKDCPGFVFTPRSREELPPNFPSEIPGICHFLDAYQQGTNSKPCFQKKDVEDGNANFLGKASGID
T1 sequence (Q02153 1-619): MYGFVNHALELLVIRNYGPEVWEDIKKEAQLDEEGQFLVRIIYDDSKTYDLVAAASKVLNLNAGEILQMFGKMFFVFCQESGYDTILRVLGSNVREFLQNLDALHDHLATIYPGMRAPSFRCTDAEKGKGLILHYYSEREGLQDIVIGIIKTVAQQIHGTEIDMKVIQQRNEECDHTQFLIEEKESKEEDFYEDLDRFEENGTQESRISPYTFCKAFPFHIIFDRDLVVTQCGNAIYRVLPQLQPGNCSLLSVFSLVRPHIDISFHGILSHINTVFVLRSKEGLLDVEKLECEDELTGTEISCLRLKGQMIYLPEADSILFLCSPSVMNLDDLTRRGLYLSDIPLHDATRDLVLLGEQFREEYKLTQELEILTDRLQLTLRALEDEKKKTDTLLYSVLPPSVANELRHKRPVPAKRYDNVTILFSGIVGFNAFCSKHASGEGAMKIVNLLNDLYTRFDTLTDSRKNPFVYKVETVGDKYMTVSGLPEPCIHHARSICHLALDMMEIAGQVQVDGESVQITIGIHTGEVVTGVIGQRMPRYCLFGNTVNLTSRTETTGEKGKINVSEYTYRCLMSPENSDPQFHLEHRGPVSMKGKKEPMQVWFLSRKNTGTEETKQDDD
The test can be described thus: Guanylate cyclase assay (formation of cyclic GMP from GTP). The test is classed as biochemical. To be noted: for Mean activation at 100 μM: (activity of compound at 100 μM with 1 μM SNP)−(activity of compound at 100 μM)/(activity of SNP at 1 μM)−(basal activity of sGC); for Mean efficacy of compound combined with 1 μM of SNP, [%]: compound at 100 μM with 1 μM sodium nitro prusside (SNP); for Emax at 100 µM: read-out: Mean basal efficacy of compound alone at 100 μM, [%]. As to the method:
Sf9 cells were cultured in Sf-90011 medium supplemented with 10% (v/v) fetal calf serum at 28° C. to give a count of 6×10^5 cells/ml. The cells were then infected with a mixture of the virus stocks for the α1 and β1 subunits of guanylate cyclase at a multiplicity of infection of 0.1 pfu/cell. The cells were harvested 72 hours after infection and were pelleted by centrifugation. The resulting cell pellets were homogenized with Polytron homogenizer in 3 volumes of 20 mM Tris-HCl (pH 7.6) containing 1 mM EDTA, 5 mM dithiothreitol, 90 mM NaCl, 10% glycerol, and protease inhibitors mix (Roche Molecular Biochemicals). The homogenate was centrifuged at 50,000×g for 60 minutes and the supernatant was aliquotted and stored at −80° C.
Compounds of the present invention were dissolved in DMSO to make 100 mM and saved as stocks at −20° C. When compounds were tested, prepared 10-fold concentrated solutions with 10% DMSO. Then added 10 μl of 10-fold concentrated compound solutions to the reaction mixture of total 100 μl.
Guanylate cyclase activity was measured by the formation of cyclic GMP from GTP in a total volume of 100 μl. Guanylate cyclase-expressed Sf9 cell high-speed supernatant was used as an enzyme source for the assay. The reaction mixture containing 0.1 μl enzyme (Sf9 high-speed sup), compound solution, 50 mM Tris-HCl (pH 7.6), 4 mM MgCl2, 0.5 mM IBMX, 15 mM creatine phosphate, 20 μg creatine phosphokinase, 0.1% BSA and 1 mM GTP was incubated at 37° C. for 15 minutes. After the reaction, 0.9 ml of 50 mM sodium acetate buffer (pH 5.8) was added followed by boiling for 3 minutes to stop the reaction. The solution was centrifuged at 3000 rpm for 15 minutes at room temperature and cyclic GMP in 20 μl of the resulting supernatant was measured according to the protocol of Amersham cyclic GMP enzymeimmunoassay system (purchased from Sigma, catalogue number RPN 226).
Compounds of the present invention were tested at 100 μM with and without 1 μM sodium nitro prusside (SNP). 1-Benzyl-3-hydroxymethyl-2-furylindazole (YC-1) was included as a standard for each assay. The data was normalized with the activity of 100 μM YC-1 (without SNP) as 100%. Mean basal efficacy, in Table 1, was expressed as a percentage of 100 μM YC-1 (without SNP).
The mean activation, in Table 1, was calculated based on the formula: (activity of compound of the present invention at 100 μM with 1 μM SNP)−(activity of compound of the present invention at 100 μM)/(activity of SNP at 1 μM)−(basal activity of sGC).

Where [1] appears, read: normalized with the activity of 100 μM YC-1 (without SNP) as 100%.
The mark [2] stands for this setting: compound at 100 μM without SNP, normalized with the activity of 100 μM YC-1 (without SNP) as 100%.

As for `O=C(/C=C/c1ccccc1Sc1ccc(Cl)cc1)NC1CCCCC1O` (centres unmarked) [Example 40, (2E)-3-{2-[(4-chlorophenyl)thio]phenyl}-N-(2-hydroxycyclohexyl)acrylamide], the “Mean activation at 100 μM” value is on record as 6.3. In addition, the “Mean efficacy of compound combined with 1 μM of SNP, [%]” value (“Mean efficacy … [%]” for short) under setting [1] is 366%. Moreover, under setting [2], the Emax at 100 µM was 100%.
On the same counts, the results for `Cc1ccc(Sc2ccccc2/C=C/C(=O)NC(C)CCCC(C)(C)O)c(C)c1` (centres unmarked) [Example 53, (2E)-3-{2-[(2,4-dimethylphenyl)thio]phenyl}-N-(5-hydroxy-1,5-dimethylhexyl)acrylamide] are 1.7, 10% and 4%.
The matching figures for `O=C(CCc1cccc(F)c1Sc1ccc(Cl)cc1)NCCCCO` [Example 7, 3-{2-[(4-chlorophenyl)thio]-3-fluorophenyl}-N-(4-hydroxybutyl)propanamide]: 3.8, 80% and 19%.
The matching figures for `O=C(/C=C/c1ccccc1SC1CCCCC1)NC1CCC(O)CC1` (centres unmarked) [Example 26, (2E)-3-[2-(cyclohexylthio)phenyl]-N-(4-hydroxycyclohexyl)acrylamide]: 7.9, 506% and 353%.
On to `O=C(/C=C/c1cc(F)ccc1Sc1ccc(Cl)cc1)NCCCCO` [Example 54, (2E)-3-{2-[(4-chlorophenyl)thio]-5-fluorophenyl}-N-(4-hydroxybutyl)acrylamide], for which the “Mean activation at 100 μM” value worked out at 13.0. Further, under setting [1], the “Mean efficacy … [%]” value came out at 186%. Besides, the Emax at 100 µM under setting [2] is 85%.
On the same counts, the results for `COc1ccc(Sc2ccccc2/C=C/C(=O)NC2CCCCC2O)cc1` (centres unmarked) [Example 49, (2E)-N-(2-hydroxycyclohexyl)-3-{2-[(4-methoxyphenyl)thio]phenyl}acrylamide] are 3.7, 79% and 15%.
The matching figures for `CC(O)CCCNC(=O)CCc1ccccc1Sc1ccc(Cl)cc1` (centres unmarked) [Example 9, 3-{2-[(4-chlorophenyl)thio]phenyl}-N-(4-hydroxypentyl)propanamide]: 4.0, 22% and 4%.
The matching figures for `CC(CC(=O)NCCc1ccncc1)c1ccccc1Sc1ccc(Cl)cc1` (centres unmarked) [Example 11, 3-{2-[(4-chlorophenyl)thio]phenyl}-N-[2-(4-pyridinyl)ethyl]butanamide]: 2.8, 6% and 1%.
As to `O=C(/C=C/c1cccnc1Sc1ccc(Br)cc1)NC1CCC(O)CC1` (centres unmarked) [Example 18, (2E)-3-{2-[(4-bromophenyl)thio]-3-pyridinyl}-N-(4-hydroxycyclohexyl)acrylamide], the “Mean efficacy … [%]” value under setting [1] is given as 113%. Besides, the Emax at 100 µM under setting [2] came out at 43%.
As for `COc1ccc(Sc2ccc(C)cc2)c(/C=C/C(=O)NC2CCC(O)CC2)c1` (centres unmarked) [Example 44, (2E)-N-(4-hydroxycyclohexyl)-3-{5-methoxy-2-[(4-methylphenyl)thio]phenyl}acrylamide], the “Mean activation at 100 μM” value was 3.5. Also, the “Mean efficacy … [%]” value under setting [1] was 89%. Under setting [2], the Emax at 100 µM was 36%.
The matching figures for `CC(C)CSc1ccccc1/C=C/C(=O)NC1CCCCC1O` (centres unmarked) [Example 21, (2E)-N-(2-hydroxycyclohexyl)-3-[2-(isobutylthio)phenyl]acrylamide]: 4.1, 106% and 45%.
On the same counts, the results for `CS(=O)(=O)NCCCCNC(=O)CCc1ccccc1Sc1ccc(Cl)cc1` [Example 6, 3-{2-[(4-chlorophenyl)thio]phenyl}-N-{4-[(methylsulfonyl)amino]butyl}propanamide] are 2.7, 11% and 2%.
“2-[1-((2E)-3-{2-[(3-methylbutyl)thio]phenyl}-2-propenoyl)-4-piperidinyl]ethanol [Example 62]”: the “Mean activation at 100 μM” value came to 4.7. For the same molecule, the “Mean efficacy … [%]” value under setting [1] is 161%. Moreover, the “Mean basal efficacy of compound alone at 100 μM, [%]” value under setting [2] worked out at 136%.
Regarding `CC(C)CCSc1ccccc1/C=C/C(=O)NCCCCO` [Example 58, (2E)-N-(4-hydroxybutyl)-3-{2-[(3-methylbutyl)thio]phenyl}acrylamide], the “Mean activation at 100 μM” value is on record as 7.8. Also, the “Mean efficacy … [%]” value under setting [1] is reported as 307%. The Emax at 100 µM under setting [2] is 215%.
On the same counts, the results for `O=C(/C=C/c1ccccc1SC1CCCCC1)NC1CCCCC1O` (centres unmarked) [Example 23, (2E)-3-[2-(cyclohexylthio)phenyl]-N-(2-hydroxycyclohexyl)acrylamide] are 2.7, 187% and 174%.
The matching figures for `CCCCNC(=O)/C=C/c1ccccc1Sc1ccc(Cl)cc1` [Example 33, (2E)-N-butyl-3-{2-[(4-chlorophenyl)thio]phenyl}acrylamide]: 6.9, 38% and 7%.
The matching figures for `O=C(CCc1ccccc1Sc1ccc(Cl)cc1)NCCCCCO` [Example 3, 3-{2-[(4-chlorophenyl)thio]phenyl}-N-(5-hydroxypentyl)propanamide]: 2.3, 29% and 2%.

These data come from US20040121994A1, “Novel amides that activate soluble guanylate cyclase” (priority 2002, published 2004).
